What was measured:
murine δ opioid receptor [1] = molecular target: T1, murine δ opioid receptor (Mus musculus, UniProt P32300); assay: biochemical; type: binding; settings: for Receptor Affinity (relative to 100%) δ: single concentration, 20 μM
T1 construct: expressed in transfected cells
Experimental: (§1) Competitive Binding Assays. Human embryonic kidney (HEK) 293 cells (ATCC CRL, 1573) were cultured at 37° C. in Dulbecco's modified Eagle's medium supplemented with 10% fetal bovine serum, 100 units/ml penicillin and 100 μg/ml streptomycin sulfate. HEK293 cells were transfected by electroporation with expression plasmids encoding murine δ or μ opioid receptors tagged at the amino termini with the FLAG-tag epitope or the human κ receptor. Cells stably expressing opioid receptors were selected in media containing 0.75 mg/ml G418 (Life Technologies, Gaithersburg, Md.).
(§2) Cell membrane preparations were collected from the stable transfectants described above. Opioid receptor binding assays were conducted in duplicate on membrane preparations that had been resuspended in 50 mM Tris-HCL, pH 7.5, utilizing [9-^3H]bremazocine (specific activity 2.6 Ci/mmol, NEN, Boston, Mass.) as radioligand and 10 μM cyclazocine to define non-specific binding. Following a one-hour incubation on ice, binding assays were terminated by filtration through Whatman GF/B filters. Filters were soaked in Ecoscint liquid scintillation solution (National Diagnostics, Manville, N.J.) and filter-bound radioactivity was measured using a Packard Tri-Carb 2100 TR liquid scintillation analyzer. Receptor binding data were analyzed by non-linear regression of saturation and competition curves using Prism 3.0 software (GraphPad Software, San Diego, Calif.). Protein concentrations were determined with the Bio-Rad protein microassay (Hercules, Calif.) using bovine serum albumin as standard.
(§3) The binding affinities for compounds listed in Table 1 (4a-c and 5a-c) were determined by competition of [9-^3H]bremazocine binding to membranes prepared from stable cells expressing either the cloned μ, δ, or κ opioid receptors as described in the above sections.
(§4) To determine the selectivity profile of compound 5c toward the cloned opioid receptors, competitive binding assays were performed in the presence of increasing concentrations of compound 5c.
(§5) Preliminary Test for Agonist vs. Antagonist Activity. A simple method to determine whether a compound is acting as an agonist or antagonist at a G-Protein coupled receptor is to perform the competitive binding assay in the presence of 100 mM NaCl. The presence of NaCl in the resuspension buffer will result in about a 4 fold decrease in binding affinity for an opioid receptor agonist, whereas an antagonist will show about a 1 fold increase in receptor affinity.

murine μ opioid receptor = molecular target: T2, murine μ opioid receptor (Mus musculus, UniProt P42866); assay: Competitive binding assay, [9-3H]bremazocine, membranes of stably transfected HEK293 cells; settings: for Receptor Affinity (relative to 100%) μ: single concentration, 20 μM; for Ki: average observed, from IC50 by Cheng-Prusoff, read-out: Inhibition Constant, Ki μ
T2 construct: expressed in transfected cells
Experimental: as §1, §2, §3, §4, §5

human κ receptor = molecular target: T3, human κ receptor (Homo sapiens, UniProt P41145); assay: as above; settings: for Receptor Affinity (relative to 100%) κ: single concentration, 20 μM; for Ki: average observed, from IC50 by Cheng-Prusoff, read-out: Inhibition Constant, Ki κ
T3 construct: expressed in transfected cells
Experimental: as §1, §2, §3, §4, §5

murine δ opioid receptor [2] = assay: biochemical; type: binding; settings: for Selectivity for δ receptor (δ/κ): ratio of receptor affinities δ to κ; for Selectivity for δ Receptor (δ/μ): ratio of receptor affinities δ to μ
Experimental: as §1, §2, §3, §4, §5

[3] = 100 mM NaCl in resuspension buffer
[4] = Inhibition Constant, Ki δ, average observed, from IC50 by Cheng-Prusoff

| Structure (SMILES) | Receptor Affinity (relative to 100%) δ (murine δ opioid receptor [1]) [%] | Receptor Affinity (relative to 100%) μ (murine μ opioid receptor) [%] | Receptor Affinity (relative to 100%) κ (human κ receptor) [%] | Selectivity for δ receptor (δ/κ) (murine δ opioid receptor [2]) | Selectivity for δ Receptor (δ/μ) (murine δ opioid receptor [2]) | melting point [°C] | selectivity among the three receptor subtypes (murine δ opioid receptor [2]; at 20 μM, μ, δ, κ) | increase in binding affinity in the presence of NaCl, δ (murine δ opioid receptor [1]; [3]) [fold] | Ki (murine δ opioid receptor [1]; [4]) [nM] | Ki (murine δ opioid receptor [1]; binding affinity for the δ opioid receptor, summary of Table 3) [nM] | agonist vs. antagonist activity, δ (murine δ opioid receptor [1]; preliminary test, 100 mM NaCl) | increase in binding affinity in the presence of NaCl, μ (murine μ opioid receptor; [3]) [fold] | Ki (murine μ opioid receptor) [nM] | agonist vs. antagonist activity, μ (murine μ opioid receptor; preliminary test, 100 mM NaCl) | increase in binding affinity in the presence of NaCl, κ (human κ receptor; [3]) [fold] | Ki (human κ receptor) [nM] | agonist vs. antagonist activity, κ (human κ receptor; preliminary test, 100 mM NaCl) |
| --- | --- | --- | --- | --- | --- | --- | --- | --- | --- | --- | --- | --- | --- | --- | --- | --- | --- |
| CC(C)(C)c1ccc(O)c(-c2nncn2-c2cccc(O)c2)c1 [Compound 5b, 1-{3-[5-(tert-Butyl)-2-hydroxyphenyl]-(1,2,4-triazol-4-yl)}-3-phenol] | ~0 | 21 | 20 |  |  |  |  |  |  |  |  |  |  |  |  |  |  |
| CC(C)(C)c1ccc(-c2nncn2-c2cccc(O)c2)cc1 [Compound 5a, 1-{3-[4-(tert-Butyl)phenyl]-(1,2,4-triazol-4-yl)}-3-phenol] | 21 | 18 | 48 | 0.44 | 1.17 |  |  |  |  |  |  |  |  |  |  |  |  |
| COc1cccc(-n2cnnc2-c2ccc(C(C)(C)C)cc2)c1 [Compound 4a, 1-{3-[4-(tert-Butyl)phenyl]-(1,2,4-triazol-4-yl)}-3-methoxybenzene] | 31 | 14 | 18 | 1.72 | 2.21 | 118.2 to 118.8 |  |  |  |  |  |  |  |  |  |  |  |
| CC(C)(C)c1cccc(-c2nncn2-c2cccc(O)c2)c1 [Compound 5c, 1-{3-[3-(tert-Butyl)phenyl]-(1,2,4-triazol-4-yl)}-3-phenol] | 39 | 72 | 85 | 0.46 | 0.54 | 242.5 to 243.5 | non-selective | ~1 | 136 | ~100 | antagonist | ~1 | 444 | antagonist | ~1 | 1390 | antagonist |
| COc1cccc(-n2cnnc2-c2cc(C(C)(C)C)ccc2OC)c1 [Compound 4b, 1-{3-[5-(tert-Butyl)-2-methoxyphenyl](1,2,4-triazol-4-yl)}-3-methoxybenzene] | 8 | 20 | 27 | 0.30 | 0.27 | 119.5 to 120 |  |  |  |  |  |  |  |  |  |  |  |
| COc1cccc(-n2cnnc2-c2cccc(C(C)(C)C)c2)c1 [Compound 4c, 1-{3-[3-(tert-Butyl)phenyl]-(1,2,4-triazol-4-yl)}-3-methoxybenzene] | 2 | 19 | 27 | 0.07 | 0.11 | 175 to 175.5 |  |  |  |  |  |  |  |  |  |  |  |
| CN(C)c1nnc(-c2ccc(C(C)(C)C)cc2)n1-c1cccc(O)c1 [Compound 5d, 1-{3-[4-(tert-butyl)phenyl]-5-N,N-dimethylamino-(1,2,4-triazol-4-yl)}-3-phenol] |  |  |  |  |  |  |  |  | 300 |  |  |  | 4000 |  |  | > 10000 |  |
